# According to a melting point compilation (Tetko et al.; mined from patent text by program, amines drawn as free bases though some values may be those of a salt):
row,SMILES,melting point [°C]
1,COc1cc(Cn2cnc3cccnc32)ccc1C(=O)N(C(C)C)C1CCCCC1,96 to 98
2,CNC(=O)[C@@H](C[C@H](O)[C@H](CC1CCCCC1)NC(=O)[C@H](Cc1cscn1)NC(=O)[C@@H](CC(=O)N1CCOCC1)Cc1ccccc1)C(C)C,83 to 86
3,O=C1CCCCC(CO)N1 (stereo not given),100
4,CS(=O)(=O)NC(=O)c1cc(Oc2c(Cl)cc(Cl)cc2Cl)ccc1[N+](=O)[O-],228
5,Cc1oc(-c2ccccc2)nc1COc1ccc(Sc2nc(-c3ccccc3)c(CCC(=O)O)s2)cc1,121 to 122
6,Cc1nc2c(OCc3c(Cl)ccc(NC(C)C)c3Cl)cccn2c1Br,133 to 134
7,OC[C@H]1OC[C@@H](n2c(Br)nc3cc(Cl)c(Cl)cc32)[C@H](O)[C@@H]1O,207 to 209
8,CS(=O)(=O)c1cccc(-c2ccc(C3C(CCC(O)c4ccc(F)cc4)C(=O)N3c3ccc(F)cc3)cc2)c1 (stereo not given),104
9,O=c1[nH]c(Cc2ccccc2)no1,114 to 116
10,CN1CCN(c2ccc(Nc3nc(N)c(C(=O)c4c(F)cccc4C(F)(F)F)s3)cc2)CC1,155 to 158
11,COc1nc2ccccc2nc1NC(=S)N1CCN(c2ccccc2SC)CC1,148 to 150
12,CCCCC(Br)C(=O)c1cc(NC(C)=O)ccc1O (stereo not given),137 to 138
13,O=C(O)Cc1ccc(Sc2ccc(Cl)cc2)cc1,135 to 140
14,CN(c1cc(OC(F)(F)F)cc2cc(C3=NCCS3)[nH]c12)S(=O)(=O)c1cccs1,179 to 180
15,COc1cc(NC(C)=O)c(Cl)cc1C(=O)[NH+]([O-])C1CCN(CC2CCCCC2)CC1 (stereo not given),206 to 208
16,CCOc1cc2ncc(C#N)c(Nc3ccccc3)c2cc1OCC,168 to 170
17,COc1c(C)cnc(CSc2nc(C)cc(=O)[nH]2)c1C,231 to 233
18,CC(C)(C)OC(=O)N1CCC(c2nc3cc(-c4ccc(C#N)c(F)c4)ccc3o2)CC1,138 to 142
19,CCOC(=O)c1c(Cn2cncn2)nc2sc(C)c(C)c2c1-c1ccc(OC)c(OC)c1,136 to 137
20,CCOC(=O)/C=C/c1cc(-c2ccccc2)nn1Cc1ccc(Cl)cc1Cl,123 to 124
21,CCCCCCCCCC(=O)Nc1cc(C(=O)O)ccc1C,246 to 250
22,CCOC(=O)c1c[nH]c2nc(NCc3ccc(Br)cc3)nn2c1=O,286 to 287
23,Cc1cc2oc(C(=O)O)cc(=O)c2c2c1-c1ccccc1C(C)(C)O2,231 to 232
24,CCC(=O)c1cc(C#N)c(=O)[nH]c1C=CN(C)C,278 to 280
25,O=C(O)c1ccc2c(Cl)ccnc2c1,> 235

row,SMILES,melting point [°C]
1,Cn1nc(C=O)c(Br)c1C(C)(C)CNC(=O)c1ccccc1,150 to 151
2,Cc1c(C(=O)Nc2ccc(N3CCCC3)c(C#N)c2)cnn1-c1ccc(F)cc1,185
3,O=S(=O)(c1ccc(Br)cc1)N1CCN(c2ccncc2)CC1,199 to 200
4,CC(=O)c1ccc(OCCCBr)c(Br)c1,83 to 84
5,Cn1nc(-c2ccc(Cl)cc2)c2c(=O)n3c(nc21)SCC3,256 to 257
6,CCCCCCCCCCCCC1(C(C(=O)Nc2c(C(C)C)cccc2C(C)C)c2ccccc2)C=CNO1 (stereo not given),107 to 108
7,COCc1cc2ccccc2c(Oc2ccc(/C=C/C(=O)O)cc2)c1-c1ccccc1,76 to 79
8,Nc1nc(N)c2c(n1)CCC(c1ccccc1)C2 (stereo not given),223 to 226
9,CCc1cc(C)nc2c(C)ccc(N)c12,60 to 62
10,COC(=O)c1cn(CCN)c(Cl)c1-c1cccc(C#N)c1,111 to 113
11,CN1C2=NCCCN2C(=O)c2cc(Cl)ccc21,119 to 120
12,COc1cc(C2=C(c3c(C)[nH]c4ccccc34)C(=O)NC2=O)cc(OC)c1OC,266
13,CSc1cc(C(C)(C)C)nn1C(=O)N(C)C,56 to 58
14,C[C@@H](O)C(=O)OC(C)(C)C,41 to 42
15,Cc1onc(CCc2ccccc2)c1C(N)=O,135 to 136
16,CC(=NNc1ccc(-c2c[nH]c(=O)cn2)cc1)c1ccncc1,175 to 179
17,CCCCCCCCCCCCNc1nc(NCC(O)C2CC(C)(C)NC(C)(C)C2)nc(NCC(O)C2CC(C)(C)NC(C)(C)C2)n1 (stereo not given),107 to 109
18,O=C(O)CCCc1cc2nc(Cl)ccc2n1S(=O)(=O)c1cccc2nccnc12,74
19,Nc1nc2ccccc2c2c1ncn2CCCCNC(=O)c1ccc2ncccc2c1,122 to 127
20,NC1=Nc2ccccc2C2CCCC12F (stereo not given),174 to 176
21,CN1C(=O)[C@H](NC(=O)/C=C/c2ccc([N+](=O)[O-])cc2)N=C(c2ccccc2)c2ccccc21,165 to 166
22,N#Cc1cccc2c1CC(=O)c1ccccc1S2,165 to 167
23,C=C(C)c1ccc(-c2ccc(OC(C)=O)cc2)cc1,131 to 132
24,CNc1c(C#N)cnn1-c1ccc(Cl)c(Cl)c1Cl,163 to 165
25,O=c1ccc(-c2nc3ccccc3s2)cn1Cc1ccc(Cl)c(F)c1,164

row,SMILES,melting point [°C]
1,CC(C)Oc1cccc(=O)n1O,119 to 120
2,CCCCCC(CC(=O)Nc1cc(CCC(=O)NC)ccc1C(C)(C)C)c1c(OC)cccc1OC (stereo not given),111 to 112
3,Nc1nc2nc(-c3ccccc3)[nH]c2c2ncnn12,> 350
4,COC(=O)C(Oc1ccc(Cl)c(C(F)(F)F)c1)c1ccc(Cl)cc1 (stereo not given),58
5,O=S1(=O)CCN2CCCC(c3ccc(Oc4cccc(Cl)c4)cc3)C2=N1 (stereo not given),165 to 167
6,O=S(c1cc(Cl)c(-n2cccn2)c(Cl)c1)C(F)(F)F (stereo not given),86 to 91
7,Cc1cc(Cl)nc(Cl)c1N,83 to 85
8,CCN(CC)CC(C)N1c2ccccc2Sc2ccc(C#N)cc21 (stereo not given),83
9,C=C(c1cc(C(C)(C)C)cc2c1CCC2(C)C)c1sccc1C=O,148 to 150
10,Cc1cc([N+](=O)[O-])ccc1NC=O,162
11,CCOC(=O)C1=C(COCc2nnnn2CC(N)=O)NC(C)=C(C(=O)OC)C1c1ccccc1Cl (stereo not given),97 to 100
12,CCN(CC)C(=O)c1ccc(C(=C2CCN(Cc3ccccc3)CC2)c2ccc(Cl)cc2)cc1,100 to 110
13,CSc1ncc(Br)c(P(=O)(c2ccccc2)c2ccccc2)n1,124 to 127
14,CC[C@H](C)[C@H](O)C(=O)N1CCC(Oc2cc3ncnc(Nc4cccc(Cl)c4F)c3cc2OC)CC1,114 to 118
15,CCCCCC(=O)c1cccc(OCc2ccc3ccccc3n2)c1,52 to 55
16,CC1CC(=O)NN=C1c1ccc(NCCN)c([N+](=O)[O-])c1 (stereo not given),162 to 164
17,CCN(CC)c1ccc2c(-c3ccc(C#Cc4ccccc4)cc3)cc(=O)oc2c1,136 to 138
18,CCOCc1nc2c(N)nc3ccccc3c2n1CCCC1(C)OCCO1,150 to 152
19,CCCCOc1nc2cccc(C(=O)OC)c2n1Cc1ccc(-c2ccccc2-c2nnn[nH]2)cc1,146 to 148
20,C#CCOc1cc(OCC#C)c2c(=O)cc(-c3ccc(OC)c(OCC#C)c3)oc2c1,196
21,O=C1C=CC(c2cccc(F)c2)(c2cccc(F)c2)CC1,95
22,CN1CCC(N(C)c2ncc3ncnc(Nc4ccc(N)c([N+](=O)[O-])c4)c3n2)CC1,242 to 246
23,CCOC(OCC)(c1ccc(F)cc1)C1CCN(CCc2c(C)nc3scc(C)n3c2=O)CC1,116
24,CCN(CC)c1nc2ccccc2n2c(C(C)C)nnc12,93 to 95
25,CC1(C(=O)Nc2ccc(S(C)(=O)=O)c(C(F)(F)F)c2)CC1,135 to 138

row,SMILES,melting point [°C]
1,O=C1c2ccsc2CCN1Cc1ccccc1,54
2,CCCCn1cc(C(=O)OCC)c(=O)c2oc3ccc(Cl)cc3c(=O)c21,226 to 228
3,O=C(Cc1ccccc1)NC1CN(OC(=O)c2ccccc2)C1=O (stereo not given),128 to 130
4,CS(=O)c1ccc(-c2cc(C(F)F)nn2-c2ccc3c(c2)OCO3)cc1 (stereo not given),104 to 105
5,S=C1CSc2ccccc2CN1,215 to 219
6,FC(F)(F)Oc1ccc(-c2csc(Nc3cc4ccccc4cn3)n2)cc1,269 to 271
7,COC1=C(OC)CC(C=C(C#N)C(N)=O)C=C1 (stereo not given),170 to 171
8,CC(=O)NCCCCCCCCCCC(=O)O,62 to 65
9,Nc1cccc(C(=O)N2N=C(C(F)(F)F)CC2(O)c2cc(F)c(Cl)cc2F)c1 (stereo not given),123 to 124
10,Cc1ccc(-c2cc(F)c(F)cc2-c2ccc(S(C)(=O)=O)cc2)cc1C,125 to 126
11,CCCc1nc2c(N)nc3cccnc3c2n1CCCCS(=O)(=O)N(C)C,162 to 163
12,CN1CCN(c2ccc(S(=O)(=O)Oc3cc(Cl)c(Cl)cc3Cl)cc2)C1=O,181 to 183
13,CC(C)c1ccc(NC(=O)OC(C)(C)C)c(NC(=O)CC(=O)c2ccnc(C#N)c2)c1,163 to 165
14,CO/C(=C\C=C\c1cc2ccccc2o1)C(=O)O,206
15,CO[C@@H]1CN(c2ccc3c(=O)c(C=O)cn(-c4nccs4)c3n2)C[C@H]1NCC(=O)OC(C)(C)C (relative stereo),130 to 132
16,COc1ccc(CCN(C)CCc2ccc(NC(=O)c3cccc4c(=O)c5ccccc5sc34)cc2)cc1OC,154
17,COC(=O)c1ccc2cc(OC(=S)N(C)C)ccc2c1,144 to 147
18,CCN(CC)Cc1cc(C(=O)c2ccccc2)cc(C2CCCCC2)c1O,106 to 107
19,C=C(C)Cc1cc(C(=O)O)ccc1OCc1ccc(F)cc1,164 to 165
20,O=[N+]([O-])c1cc(Cl)c(Oc2ccc(Cl)c3ccccc23)c(Cl)c1,145 to 147
21,Cc1sc(S(N)(=O)=O)cc1[N+](=O)[O-],120
22,Cc1ccc(-n2nc3c4cc(Br)ccc4[nH]c(=O)n3c2=O)cc1,369
23,CN(C)C=C(C#N)CNC=O,90
24,COc1ccc2c(c1)C(=O)C(=Cc1ccncc1)CO2,170 to 172
25,COc1cc2c(cc1Nc1ncc(Cl)c(Nc3ccccc3S(=O)(=O)N(C)C)n1)CCNC(=O)C2,190 to 195
